{
  "source": "paper PMC4186449",
  "about": "(Pharmacology Research & Perspectives, 2014)",
  "molecular_target": "T1, LdTOPII (Leishmania donovani, UniProt Q9XZN0)",
  "T1 sequence (Q9XZN0 1-1236)": "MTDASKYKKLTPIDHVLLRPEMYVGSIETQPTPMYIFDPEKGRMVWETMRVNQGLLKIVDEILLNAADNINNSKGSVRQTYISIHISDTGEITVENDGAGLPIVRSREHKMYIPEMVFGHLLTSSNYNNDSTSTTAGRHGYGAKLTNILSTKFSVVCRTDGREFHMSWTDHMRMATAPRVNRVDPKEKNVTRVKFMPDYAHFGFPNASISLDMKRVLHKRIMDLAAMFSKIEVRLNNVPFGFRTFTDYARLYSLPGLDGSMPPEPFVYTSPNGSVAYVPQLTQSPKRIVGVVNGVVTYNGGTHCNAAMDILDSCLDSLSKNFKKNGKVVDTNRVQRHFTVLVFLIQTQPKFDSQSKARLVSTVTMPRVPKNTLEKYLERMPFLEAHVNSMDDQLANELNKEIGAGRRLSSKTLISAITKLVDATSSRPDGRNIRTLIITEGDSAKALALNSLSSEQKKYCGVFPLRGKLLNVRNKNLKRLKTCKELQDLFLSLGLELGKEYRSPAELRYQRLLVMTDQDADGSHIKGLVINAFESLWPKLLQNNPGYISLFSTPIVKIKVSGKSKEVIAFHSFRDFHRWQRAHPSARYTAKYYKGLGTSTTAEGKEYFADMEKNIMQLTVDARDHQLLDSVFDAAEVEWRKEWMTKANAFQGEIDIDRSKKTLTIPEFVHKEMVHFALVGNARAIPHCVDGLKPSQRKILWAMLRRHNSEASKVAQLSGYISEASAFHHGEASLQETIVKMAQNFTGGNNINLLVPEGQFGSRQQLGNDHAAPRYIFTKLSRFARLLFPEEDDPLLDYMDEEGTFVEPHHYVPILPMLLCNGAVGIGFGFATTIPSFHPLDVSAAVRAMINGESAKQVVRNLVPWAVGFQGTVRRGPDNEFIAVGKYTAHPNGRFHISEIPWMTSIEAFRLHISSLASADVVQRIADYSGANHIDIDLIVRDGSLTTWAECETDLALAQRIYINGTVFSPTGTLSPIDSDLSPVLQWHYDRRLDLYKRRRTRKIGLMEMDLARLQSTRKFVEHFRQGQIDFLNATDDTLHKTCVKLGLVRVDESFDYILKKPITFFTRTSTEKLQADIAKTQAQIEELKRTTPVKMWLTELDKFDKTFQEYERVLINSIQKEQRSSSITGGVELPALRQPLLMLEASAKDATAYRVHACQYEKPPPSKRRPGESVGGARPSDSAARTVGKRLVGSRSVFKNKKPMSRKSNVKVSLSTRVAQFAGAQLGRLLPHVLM",
  "conditions": "2 mmol/L ATP, 30°C",
  "data": [
    {"compound": "Nc1ncnc2c1ncn2[C@@H]1O[C@H](COP(=O)(O)OP(=O)(O)OP(=O)(O)O)[C@@H](O)[C@H]1O", "note": "[ATP]", "values": [
      {"measurement": "pyruvate kinase/lactate dehydrogenase coupled ATPase assay", "result": "JVPH3 and JVPH4 did not interfere with LdTOPII-mediated ATP hydrolysis"}
    ]}
  ]
}
